Experimental data: PubChem BioAssay AID1963986 (Molecular Pharmacology Branch, DTP, NCI, 2024)

System: 171881-019-R-J1-PDC tumor spheroid viability
Assay: Anticancer human tumor 171881-019-R-J1-PDC patient-derived invasive breast carcinoma cell line growth inhibition [PI3K]
Conditions: spheroids with HUVEC and MSC; for IC50: curve of first compound; for viability, T/C: stronger effect = lower value
How it was run: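 High-throughput combination screen: PI3K inhibitors crossed with targeted small molecules on complex spheroids of tumor cells, HUVEC and MSCs at 37 degrees C, 5% CO2. Top concentration was at or near clinical Cmax (otherwise 10 microM), with half-log decrements.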

[1] = second compound 0.00316 µM, first compound 0.0316 µM
[2] = second compound 0.00316 µM, first compound 0.1 µM
[3] = second compound 0.00316 µM, first compound 0.316 µM
[4] = second compound 0.00316 µM, first compound 1 µM
[5] = second compound 0.00316 µM, first compound 3.16 µM
[6] = second compound 0.00316 µM, first compound 10 µM
[7] = second compound 0.01 µM, first compound 0.0316 µM
[8] = second compound 0.01 µM, first compound 0.1 µM
[9] = second compound 0.01 µM, first compound 0.316 µM
[10] = second compound 0.01 µM, first compound 1 µM
[11] = second compound 0.01 µM, first compound 3.16 µM
[12] = second compound 0.01 µM, first compound 10 µM
[13] = second compound 0.0316 µM, first compound 0.0316 µM
[14] = second compound 0.0316 µM, first compound 0.1 µM
[15] = second compound 0.0316 µM, first compound 0.316 µM
[16] = second compound 0.0316 µM, first compound 1 µM
[17] = second compound 0.0316 µM, first compound 3.16 µM
[18] = second compound 0.0316 µM, first compound 10 µM
[19] = second compound 0.1 µM, first compound 0.0316 µM
[20] = second compound 0.1 µM, first compound 0.1 µM
[21] = second compound 0.1 µM, first compound 0.316 µM
[22] = second compound 0.1 µM, first compound 1 µM
[23] = second compound 0.1 µM, first compound 3.16 µM
[24] = second compound 0.1 µM, first compound 10 µM
[25] = second compound 0.316 µM, first compound 0.0316 µM
[26] = second compound 0.316 µM, first compound 0.1 µM
[27] = second compound 0.316 µM, first compound 0.316 µM
[28] = second compound 0.316 µM, first compound 1 µM
[29] = second compound 0.316 µM, first compound 3.16 µM
[30] = second compound 0.316 µM, first compound 10 µM
[31] = second compound 1 µM, first compound 0.0316 µM
[32] = second compound 1 µM, first compound 0.1 µM
[33] = second compound 1 µM, first compound 0.316 µM
[34] = second compound 1 µM, first compound 1 µM
[35] = second compound 1 µM, first compound 3.16 µM
[36] = second compound 1 µM, first compound 10 µM
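Also: spheroids exposed to compound for 7 days before viability read.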
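For viability, T/C in this document: 100% = DMSO vehicle-treated spheroids.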

CC(C)NCC(C(=O)N1CCN(c2ncnc3c2C(C)CC3O)CC1)c1ccc(Cl)cc1 (stereo not drawn) + COc1c(OCCCN2CCOCC2)ccc2c3n(c(=NC(=O)c4cnc(N)nc4)nc12)CCN3
IC50 (second compound 0.00316 µM): 200 nM | IC50 (second compound 0.01 µM): < 31.6 nM | IC50 (second compound 0.0316 µM): < 31.6 nM | IC50 (second compound 0.1 µM): < 31.6 nM | IC50 (second compound 0.316 µM): < 31.6 nM | IC50 (second compound 1 µM): < 31.6 nM | viability, T/C [1]: 63.8% | viability, T/C [2]: 57% | viability, T/C [3]: 44.8% | viability, T/C [4]: 27.6% | viability, T/C [5]: 11.6% | viability, T/C [6]: 8.17% | viability, T/C [7]: 48.5% | viability, T/C [8]: 47% | viability, T/C [9]: 36.4% | viability, T/C [10]: 24.1% | viability, T/C [11]: 12.4% | viability, T/C [12]: 8.98% | viability, T/C [13]: 25% | viability, T/C [14]: 24.9% | viability, T/C [15]: 25.8% | viability, T/C [16]: 14.4% | viability, T/C [17]: 8.88% | viability, T/C [18]: 5.68% | viability, T/C [19]: 7.43% | viability, T/C [20]: 8.22% | viability, T/C [21]: 8.03% | viability, T/C [22]: 6.41% | viability, T/C [23]: 5.14% | viability, T/C [24]: 3.1% | viability, T/C [25]: 1.9% | viability, T/C [26]: 2.03% | viability, T/C [27]: 2.26% | viability, T/C [28]: 2.16% | viability, T/C [29]: 1.57% | viability, T/C [30]: 1.13% | viability, T/C [31]: 0.99% | viability, T/C [32]: 1.4% | viability, T/C [33]: 1.49% | viability, T/C [34]: 1.35% | viability, T/C [35]: 1.05% | viability, T/C [36]: 0.68%

CCN1CCN(Cc2ccc(Nc3ncc(F)c(-c4cc(F)c5nc(C)n(C(C)C)c5c4)n3)nc2)CC1 + COc1c(OCCCN2CCOCC2)ccc2c3n(c(=NC(=O)c4cnc(N)nc4)nc12)CCN3
IC50 (second compound 0.00316 µM): > 1000 nM | IC50 (second compound 0.01 µM): > 1000 nM | IC50 (second compound 0.0316 µM): < 3.16 nM | IC50 (second compound 0.1 µM): < 3.16 nM | IC50 (second compound 0.316 µM): < 3.16 nM | IC50 (second compound 1 µM): < 3.16 nM | viability, T/C (second compound 0.00316 µM, first compound 0.00316 µM): 71.9% | viability, T/C (second compound 0.00316 µM, first compound 0.01 µM): 73.1% | viability, T/C [1]: 83.8% | viability, T/C [2]: 80.4% | viability, T/C [3]: 93.8% | viability, T/C [4]: 99.6% | viability, T/C (second compound 0.01 µM, first compound 0.00316 µM): 48.9% | viability, T/C (second compound 0.01 µM, first compound 0.01 µM): 56.9% | viability, T/C [7]: 53.6% | viability, T/C [8]: 63.8% | viability, T/C [9]: 69% | viability, T/C [10]: 83.2% | viability, T/C (second compound 0.0316 µM, first compound 0.00316 µM): 27.4% | viability, T/C (second compound 0.0316 µM, first compound 0.01 µM): 31.5% | viability, T/C [13]: 33.8% | viability, T/C [14]: 36.9% | viability, T/C [15]: 44.6% | viability, T/C [16]: 50.6% | viability, T/C (second compound 0.1 µM, first compound 0.00316 µM): 10.5% | viability, T/C (second compound 0.1 µM, first compound 0.01 µM): 10.2% | viability, T/C [19]: 12.2% | viability, T/C [20]: 12.8% | viability, T/C [21]: 16% | viability, T/C [22]: 23.8% | viability, T/C (second compound 0.316 µM, first compound 0.00316 µM): 2.23% | viability, T/C (second compound 0.316 µM, first compound 0.01 µM): 2.11% | viability, T/C [25]: 2.24% | viability, T/C [26]: 2.94% | viability, T/C [27]: 4.39% | viability, T/C [28]: 7.79% | viability, T/C (second compound 1 µM, first compound 0.00316 µM): 0.86% | viability, T/C (second compound 1 µM, first compound 0.01 µM): 1.08% | viability, T/C [31]: 1.81% | viability, T/C [32]: 1.03% | viability, T/C [33]: 1.58% | viability, T/C [34]: 2.28%

Cn1ncc(Cl)c1-c1cc(C(=O)NC(CN)Cc2cccc(F)c2)sc1Cl (stereo not drawn) + COc1c(OCCCN2CCOCC2)ccc2c3n(c(=NC(=O)c4cnc(N)nc4)nc12)CCN3
IC50 (second compound 0.00316 µM): 74.5 nM | IC50 (second compound 0.01 µM): < 31.6 nM | IC50 (second compound 0.0316 µM): < 31.6 nM | IC50 (second compound 0.1 µM): < 31.6 nM | IC50 (second compound 0.316 µM): < 31.6 nM | IC50 (second compound 1 µM): < 31.6 nM | viability, T/C [1]: 63.8% | viability, T/C [2]: 46.4% | viability, T/C [3]: 27.6% | viability, T/C [4]: 17.7% | viability, T/C [5]: 11.5% | viability, T/C [6]: 3.72% | viability, T/C [7]: 48.2% | viability, T/C [8]: 37.2% | viability, T/C [9]: 23.7% | viability, T/C [10]: 16.4% | viability, T/C [11]: 9.82% | viability, T/C [12]: 4.66% | viability, T/C [13]: 24.1% | viability, T/C [14]: 22% | viability, T/C [15]: 15.6% | viability, T/C [16]: 11.3% | viability, T/C [17]: 7.85% | viability, T/C [18]: 4.52% | viability, T/C [19]: 8.56% | viability, T/C [20]: 6.38% | viability, T/C [21]: 6.32% | viability, T/C [22]: 5.69% | viability, T/C [23]: 4.46% | viability, T/C [24]: 2.26% | viability, T/C [25]: 2.05% | viability, T/C [26]: 1.87% | viability, T/C [27]: 1.74% | viability, T/C [28]: 1.64% | viability, T/C [29]: 1.47% | viability, T/C [30]: 1.92% | viability, T/C [31]: 0.97% | viability, T/C [32]: 1.14% | viability, T/C [33]: 1.37% | viability, T/C [34]: 0.72% | viability, T/C [35]: 0.77% | viability, T/C [36]: 0.22%

Cn1nccc1Nc1nccc(-c2ccn(C(CO)c3ccc(Cl)c(F)c3)c(=O)c2)n1 (stereo not drawn) + COc1c(OCCCN2CCOCC2)ccc2c3n(c(=NC(=O)c4cnc(N)nc4)nc12)CCN3
IC50 (second compound 0.00316 µM): 38.2 nM | IC50 (second compound 0.01 µM): < 31.6 nM | IC50 (second compound 0.0316 µM): < 31.6 nM | IC50 (second compound 0.1 µM): < 31.6 nM | IC50 (second compound 0.316 µM): < 31.6 nM | IC50 (second compound 1 µM): < 31.6 nM | viability, T/C [1]: 51.4% | viability, T/C [2]: 42.5% | viability, T/C [3]: 28.6% | viability, T/C [4]: 18.1% | viability, T/C [5]: 14.3% | viability, T/C [6]: 11% | viability, T/C [7]: 44.5% | viability, T/C [8]: 32.1% | viability, T/C [9]: 21.4% | viability, T/C [10]: 12.2% | viability, T/C [11]: 9.48% | viability, T/C [12]: 7.46% | viability, T/C [13]: 19.3% | viability, T/C [14]: 14.8% | viability, T/C [15]: 8.54% | viability, T/C [16]: 5.82% | viability, T/C [17]: 4.42% | viability, T/C [18]: 2.75% | viability, T/C [19]: 6.44% | viability, T/C [20]: 4.39% | viability, T/C [21]: 3.29% | viability, T/C [22]: 2.41% | viability, T/C [23]: 2.36% | viability, T/C [24]: 0.87% | viability, T/C [25]: 1.92% | viability, T/C [26]: 1.3% | viability, T/C [27]: 1.85% | viability, T/C [28]: 1.35% | viability, T/C [29]: 0.41% | viability, T/C [30]: 0.33% | viability, T/C [31]: 0.78% | viability, T/C [32]: 0.82% | viability, T/C [33]: 0.76% | viability, T/C [34]: 0.86% | viability, T/C [35]: 1.32% | viability, T/C [36]: 0.5%
